Measured values taken from patent publication US20220153744A1, “SOLID STATE FORMS OF ACALABRUTINIB” (ASSIA CHEMICAL INDUSTRIES LTD., priority 2019, published 2022).

Assays:
Assay type in all cases: physicochemical
[1] = Polymorphic stability on storage at defined temperature and relative humidity
Text: (§1) Crystalline Form ACB3 of Acalabrutinib may have advantageous properties as described herein above.

[2] = Polymorphic stability on heating; conditions: heated to about 100° C. over about 30 minutes
Text: as §1

[3] = Polymorphic stability towards grinding
Text: as §1

CC#CC(=O)N1CCC[C@H]1c1nc(-c2ccc(C(=O)Nc3ccccn3)cc2)c2c(N)nccn12 [Form ACB3, 4-{8-Amino-3-[(2S)-1-(2-butynoyl)-2-pyrrolidinyl]imidazo[1,5-a]pyrazin-1-yl}-N-(2-pyridinyl)benzamide]
polymorphically stable: polymorphic stability on storage ([1]; 40° C., RH of about 75%, at least 1 month) | polymorphic stability on storage ([1]; room temperature, RH of about 60%, at least 1 month) | polymorphic stability on storage ([1]; room temperature, RH of about 80%, at least 7 days) | polymorphic stability when heated [2] | polymorphic stability towards solvent grinding ([3]; solvent grinding) | polymorphic stability towards strong dry grinding ([3]; strong dry grinding)
